# Results taken from ChEMBL document CHEMBL3414460, “Antiprotozoal activity and DNA binding of dicationic acridones” (J Med Chem, 2015).
# pIC50: −log10 of the molar value. “And” between values parts separate entries of the source, which are not always exact repeats. Equal entries are not always repeated. The source made the active and inactive calls. No cut-off for these calls is given here.
# Key:
# Leishmania donovani = test: Antiprotozoal activity against axenic amastigote stage of Leishmania donovani MHOM-ET-67/L82 by alamar-blue assay; assay type: functional, organism-based
# [1] = Selectivity index, ratio of CC50 for rat L6 cells to IC50 for bloodstream form of Trypanosoma brucei rhodesiense STIB900; assay type: functional
# Plasmodium falciparum [2] = test: Antiprotozoal activity against intraerythrocytic stage of chloroquine-sensitive Plasmodium falciparum NF54 by [3H]hypoxanthine incorporation assay; assay type: functional, organism-based
# L6 = test: (§1) Cytotoxicity against rat L6 cells; assay type: cell-based; settings: l6
# [3] = Selectivity index, ratio of CC50 for rat L6 cells to IC50 for Plasmodium falciparum NF54; assay type: functional
# [4] = system: Trypanosoma brucei rhodesiense; test: Antiprotozoal activity against bloodstream form of Trypanosoma brucei rhodesiense STIB900 trypomastigote by alamar-blue assay; assay type: functional, organism-based
# [5] = system: Trypanosoma brucei rhodesiense; test: Antitrypanosomal activity against Trypanosoma brucei rhodesiense STIB900 infected in NMRI mouse assessed as time duration by measuring mean day of relapse at 20 mg/kg, ip administered for 4 days; assay type: functional; settings: route intraperitoneal
# Hyperoartia [6] = test: Binding affinity to fish sperm DNA by circular dichroism spectroscopy
# [7] = Binding affinity to fish sperm DNA assessed as hypochromicity after 1 min by UV-Vis spectrophotometry; design: concentration or dose not given beside the values
# [8] = system: Trypanosoma brucei rhodesiense; test: Antitrypanosomal activity against Trypanosoma brucei rhodesiense STIB900 infected in NMRI mouse assessed as cure at 20 mg/kg, ip administered for 4 days; assay type: functional, organism-based; design: dose 20 mg/kg
# [9] = as §1; assay type: cell-based; settings: L6 cells
# Trypanosoma cruzi = test: Antiprotozoal activity against intracellular amastigote stage of Trypanosoma cruzi Tulahuen C4 by colorimetric assay; assay type: functional, organism-based
# [10] = system: Trypanosoma brucei rhodesiense; test: Antitrypanosomal activity against Trypanosoma brucei rhodesiense STIB900 infected in NMRI mouse assessed as time duration by measuring mean day of relapse at 50 mg/kg, po administered for 4 days; assay type: functional
# [11] = Selectivity index, ratio of CC50 for rat L6 cells to IC50 for Plasmodium falciparum K1; assay type: functional
# Plasmodium falciparum [12] = test: Antiprotozoal activity against intraerythrocytic stage of chloroquine/pyrimethamine-resistant Plasmodium falciparum K1 by [3H]hypoxanthine incorporation assay; assay type: functional, organism-based
# [13] = system: Trypanosoma brucei rhodesiense; test: Antitrypanosomal activity against Trypanosoma brucei rhodesiense STIB900 infected in NMRI mouse assessed as cure at 50 mg/kg, po administered for 4 days; assay type: functional, organism-based; design: dose 50 mg/kg
# Hyperoartia [14] = test: Binding affinity to fish sperm DNA assessed as positive band of unvarying intensity at compound/DNA ratio 0.5 to 0.6 by circular dichroism spectroscopy
# [15] = system: Trypanosoma brucei rhodesiense; test: Antitrypanosomal activity against Trypanosoma brucei rhodesiense STIB900 infected in NMRI mouse assessed as cure at 5 mg/kg, ip administered for 4 days; assay type: functional, organism-based; design: dose 5 mg/kg
# Hyperoartia [16] = test: Binding affinity to fish sperm DNA assessed as reduction in positive band at compound/DNA ratio 1 to 2 by circular dichroism spectroscopy
# Hyperoartia [17] = test: Binding affinity to fish sperm DNA assessed as weak negative band at compound/DNA ratio 1 to 2 by circular dichroism spectroscopy
# Mus musculus = test: Toxicity in NMRI mouse infected with Trypanosoma brucei rhodesiense STIB900 at 20 mg/kg, ip administered for 4 days; assay type: organism-based; design: dose 20 mg/kg, route intraperitoneal; settings: in vivo, 96 h
# [18] = system: Trypanosoma brucei rhodesiense; test: Antitrypanosomal activity against Trypanosoma brucei rhodesiense STIB900 infected in NMRI mouse assessed as time duration by measuring mean day of relapse at 5 mg/kg, ip administered for 4 days; assay type: functional; settings: route intraperitoneal
Structure (SMILES),pIC50 (Leishmania donovani),Ratio CC50/IC50 [1],"pIC50 ([4]; Trypanosoma brucei, STIB900)",Activity [7],CC50 [9],pIC50 (Trypanosoma cruzi),pIC50 (Plasmodium falciparum [12]),other results
CCCCCCCCCCCCCCCCOP(=O)([O-])OCC[N+](C)(C)C [MILTEFOSINE],6.35,,,,,,,
O=C(O)C(F)(F)F.O=C(O)C(F)(F)F.O=c1c2ccc(NC3=NCCN3)cc2[nH]c2cc(NC3=NCCN3)ccc12,,1647,7.22,,,,,pIC50 (Plasmodium falciparum [2]): 7.05; CC50 (L6): 99 µM; Ratio CC50/IC50 [3]: 1149
Cl.Cl.O=c1c2ccc(NC3=NCCN3)cc2[nH]c2ccc(NC3=NCCN3)cc12,4.14,15257,8.15,47%,107 µM,< 3.64,,"Time [5]: >50 days; Activity (Hyperoartia [6]): Active; Activity [8]: Active; pIC50 (Plasmodium falciparum [2]; Plasmodium falciparum, NF54): 6.08; Ratio CC50/IC50 [3]: 128"
Cl.Cl.O=c1c2cc(NC3=NCCN3)ccc2[nH]c2ccc(NC3=NCCN3)cc12,3.75,>3333,7.16,49%,> 230 µM,< 3.64,6.47,Time [10]: 22 days; Time [5]: >45.5 days; Ratio CC50/IC50 [11]: >666; Activity [8]: Active; Activity [13]: inactive
Cn1c2ccc(NC3=NCCN3)cc2c(=O)c2cc(NC3=NCCN3)ccc21.O=C(O)C(F)(F)F.O=C(O)C(F)(F)F,,14843,8.15,48%,104 µM,,,"pIC50 (Plasmodium falciparum [2]; Plasmodium falciparum, NF54): 6.66; Ratio CC50/IC50 [3]: 468"
O=c1c2ccc(NC3=NCCN3)cc2[nH]c2cc(NC3=NCCN3)ccc12,,,,40% and 35%,,,,Activity (Hyperoartia [14]): Active; Activity (Hyperoartia [6]): Active; Activity [15]: inactive; Activity (Hyperoartia [16]): Active; Activity (Hyperoartia [17]): Active
Nc1ccc2[nH]c3ccc(N)cc3c(=O)c2c1,3.49,,5.54,,75 µM,3.83,5.60,
Cn1c2ccc(NC3=NCCN3)cc2c(=O)c2ccc(NC3=NCCN3)cc21.O=C(O)C(F)(F)F.O=C(O)C(F)(F)F,,12287,8.10,50%,98 µM,,,"pIC50 (Plasmodium falciparum [2]; Plasmodium falciparum, NF54): 6.25; Ratio CC50/IC50 [3]: 175"
Cl.Cl.O=c1c2ccc(NC3=NCCN3)cc2[nH]c2cc(NC3=NCCN3)ccc12,3.95,2210,,,137 µM,< 3.64,,Activity (Mus musculus): Non-toxic; pIC50 (Plasmodium falciparum [2]): 6.60; Ratio CC50/IC50 [3]: 546; Time [18]: 14 days; pIC50 [4]: 7.21
COc1cc([C@@H]2c3cc4c(cc3[C@H](O)[C@H]3COC(=O)[C@H]23)OCO4)cc(OC)c1OC [PODOFILOX],,,,,0.012 µM,,,
O=C(O)C(F)(F)F.O=C(O)C(F)(F)F.O=C1c2ccc(NC3=NCCN3)cc2C(=O)c2ccc(NC3=NCCN3)cc21,3.84,,5.64,46%,75 µM,3.98,7.22,Activity (Hyperoartia [6]): Active; Ratio CC50/IC50 [11]: 1229; Activity [8]: Active
CC(C)(C)OC(=O)N1CCN(C(=O)OC(C)(C)C)C1=Nc1ccc2[nH]c3ccc(N=C4N(C(=O)OC(C)(C)C)CCN4C(=O)OC(C)(C)C)cc3c(=O)c2c1,< 3.90,,5.66,,73 µM,4.30,4.48,
Nc1ccc(Nc2ccc([N+](=O)[O-])cc2C(=O)O)cc1,4.64,,4.26,,> 365 µM,3.53,4.28,
Nc1ccc2c(=O)c3cc(N)ccc3[nH]c2c1,3.54,,4.72,,23 µM,3.57,5.32,
Nc1cccc(Nc2ccc([N+](=O)[O-])cc2C(=O)O)c1,4.21,,3.91,,266 µM,3.57,4.15,
Nc1ccc2[nH]c3ccc([N+](=O)[O-])cc3c(=O)c2c1,4.11,,4.71,,186 µM,3.54,4.31,
Nc1ccc2c(=O)c3cc([N+](=O)[O-])ccc3[nH]c2c1,3.54,,4.17,,147 µM,3.55,4.47,
